Source: EP0329198B1, “Base modified oligo- and polynucleotides and methods of preparing and using same” (priority 1981, dated 1982)
Like-named read-outs stand apart in the source and are kept apart here.

How the values were obtained:
[1] = tested on: CHO cells, permeabilized by treatment with lysolecithin; experiment: Polymerase substrate function in permeabilized cells
streptavidin = streptavidin (Streptomyces avidinii, UniProt P22629); conditions: affinity of streptavidin for biotin; cited from earlier work
avidin = avidin (Gallus gallus, UniProt P02701); conditions: cited from earlier work
Streptavidin-Sepharose = Streptavidin-Sepharose (Streptomyces avidinii, UniProt P22629)
Description: Its preparation and purification is described in Hoffman, et al., Proc. Natl. Acad. Sci., 77, 4666 (1980).

Streptavidin-Sepharose, sequence (P22629 25-183): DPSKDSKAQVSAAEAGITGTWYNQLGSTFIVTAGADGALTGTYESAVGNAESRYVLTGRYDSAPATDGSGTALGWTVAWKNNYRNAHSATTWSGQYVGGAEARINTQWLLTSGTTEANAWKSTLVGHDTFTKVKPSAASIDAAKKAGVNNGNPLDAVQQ
avidin, sequence (P02701 25-152): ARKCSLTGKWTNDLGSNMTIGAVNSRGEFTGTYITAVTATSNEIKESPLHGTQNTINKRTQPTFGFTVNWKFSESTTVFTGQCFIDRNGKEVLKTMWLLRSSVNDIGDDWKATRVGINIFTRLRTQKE
streptavidin, sequence (P22629 25-183): as the sequence (P22629 25-183) above

For `O=C(CCCCC1SCC2NC(=O)NC21)NC/C=C/c1cn(C2CC(O)C(COP(=O)(O)OP(=O)(O)OP(=O)(O)O)O2)c(=O)[nH]c1=O` (stereo not shown) [Bio-dUTP, biotinyl-dUTP], the polymerase substrate function [1] was “function as a polymerase substrate”.
In the case of `O=C(O)CCCC[C@@H]1SC[C@@H]2NC(=O)N[C@@H]21` [biotin], the Kassn (streptavidin) is given as 10^15.
In the case of `N=C1N[C@H]2[C@H](CS[C@H]2CCCCC(=O)O)N1` [iminobiotin], the “binding to avidin relative to biotin” value (avidin) is listed as “less tightly than biotin”.
In the case of Iminobiotinyl-dUTP [^3H-IB-dUTP], the “% Retained on SA-Sepharose” value (Streptavidin-Sepharose; Load - 10 mM Tris-HCl, 8.3, 50 mM NaCl) is reported as 100%, the “% Retained on SA-Sepharose” value (Streptavidin-Sepharose; eluent (1) 0.1 M NaCl) is reported as 100% and the “% Retained on SA-Sepharose” value (Streptavidin-Sepharose; eluent (2) 1.0 M NaCl) is reported as 100%. For the same compound, the “% Retained on SA-Sepharose” value (Streptavidin-Sepharose; eluent (3) 8 M Urea) was 97.5%, the “% Retained on SA-Sepharose” value (Streptavidin-Sepharose; eluent (4) 6 M guanidine-HCl) was 97.0% and the “% Retained on SA-Sepharose” value (Streptavidin-Sepharose; eluent (5) 50 mM NH4-acetate, pH 4.0) was less than 0.01%. For the same compound, the “% Retained on SA-Sepharose” value (Streptavidin-Sepharose; eluent (6) 50 mM NH4-acetate, pH 4.0 2 mM biotin) was less than 0.01%.
